Non-standard residues stand in square brackets, D forms with d. Residues, ends and D or L forms follow the SMILES beside them. ξ: configuration not given here. *: point of attachment. Palmitoyl = CCCCCCCCCCCCCCCC(=O)*; X1 = CCCCCCCCCCCOCCCC(=O)*; ξR = N=C(N)NCCCC(N)C(=O)O
molecular target: T1, Gi-coupled receptor APJ (HEK cells stably expressing the APJ receptor) (Homo sapiens, UniProt P35414); experiment: HTRF cAMP assay: inhibition of NKH477 stimulated increase in cAMP; type: cell-based; details: read-out: EC50 value (nM), SEM
T1 construct: expressed in transfected cells; host or cells: HEK cells stably expressing APJ
T1 sequence (P35414 1-380): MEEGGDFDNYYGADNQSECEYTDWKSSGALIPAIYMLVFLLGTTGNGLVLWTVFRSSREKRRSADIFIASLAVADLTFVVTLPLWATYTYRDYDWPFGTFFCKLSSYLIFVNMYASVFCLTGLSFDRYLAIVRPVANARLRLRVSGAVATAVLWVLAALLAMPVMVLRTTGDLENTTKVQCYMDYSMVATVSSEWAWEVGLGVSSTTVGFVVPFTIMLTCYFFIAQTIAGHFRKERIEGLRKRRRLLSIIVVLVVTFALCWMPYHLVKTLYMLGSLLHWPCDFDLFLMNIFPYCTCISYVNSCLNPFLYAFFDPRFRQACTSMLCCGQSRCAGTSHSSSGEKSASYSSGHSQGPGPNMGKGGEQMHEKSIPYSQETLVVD
Excerpt: HTRF (homogeneous time resolved fluorescence) is a technology developed by Cisbio Bioassays based on TR-FRET (time-resolved fluorescence resonance energy transfer). Cisbio Bioassays has developed a wide selection of HTRF-based assays compatible with whole cells, thereby enabling functional assays to run under more physiological conditions. The IP-One assays are competitive immunoassays using cryptate-labeled anti-IPI monoclonal antibody and d2-labeled IP1. IP1 is a relatively stable downstream metabolite of IP3, and accumulates in cells following Gq receptor activation.
cAMP kits based on a competitive immunoassay using cryptate-labeled anti-cAMP antibody and d2-labeled cAMP were used to assay the effects of APJ compounds of the present invention. This assay measures the increase in intracellular cAMP upon Gs-coupled receptor activation as well as decrease in forskolin (or a more soluble version of forskolin—NKH477) stimulated increase in cAMP upon Gi-coupled receptor activation.

EC50 [nM]	Structure (SMILES)
1 to 500	CCCCCCCCCCCCCCCC(=O)N[C@H](C(=O)N[C@H](C(=O)N[C@@H](Cc1ccccc1)C(=O)N[C@@H](CCCNC(=N)N)C(=O)N[C@@H](CO)C(=O)N[C@@H](CO)C(=O)N[C@@H](CCCNC(=N)N)C(=O)N[C@@H](CCC(=O)O)C(=O)N[C@@H](CCCCN)C(=O)N[C@@H](CCCNC(=N)N)C(=O)N[C@@H](CCCNC(=N)N)C(=O)N[C@@H](CO)C(=O)N[C@@H](C)C(=O)N[C@@H](CC(=O)O)C(=O)N[C@H](C(=O)N[C@@H](C)C(=O)N[C@H](C(N)=O)[C@@H](C)CC)[C@@H](C)CC)C(C)C)[C@@H](C)O [Compound 39] (Palmitoyl-TVFRSSREKRRSADIAI-NH2)
> 10000	CCCCCCCCCCCCCCCC(=O)N[C@H](C(=O)N[C@@H](CCCNC(=N)N)C(=O)N1CCC[C@H]1C(=O)N[C@H](C(=O)N[C@@H](C)C(=O)N[C@@H](CC(N)=O)C(=O)N[C@@H](C)C(=O)N[C@@H](CCCNC(=N)N)C(=O)N[C@@H](CC(C)C)C(=O)NC(CCCNC(=N)N)C(N)=O)C(C)C)C(C)C (stereo partly drawn) [Compound 80] (Palmitoyl-VRPVANARL[ξR]-NH2)
1 to 500	CCCCCCCCCCCCCCCC(=O)N[C@H](C(=O)N[C@H](C(=O)N[C@@H](Cc1ccccc1)C(=O)N[C@@H](CCCNC(=N)N)C(=O)N[C@@H](CO)C(=O)N[C@@H](C)C(=O)N[C@@H](CCCNC(=N)N)C(=O)N[C@@H](CCC(=O)O)C(=O)N[C@@H](CCCCN)C(=O)N[C@@H](CCCNC(=N)N)C(=O)N[C@@H](CCCNC(=N)N)C(=O)N[C@@H](CO)C(=O)N[C@@H](C)C(=O)N[C@@H](CC(=O)O)C(=O)N[C@H](C(=O)N[C@@H](Cc1ccccc1)C(=O)N[C@H](C(N)=O)[C@@H](C)CC)[C@@H](C)CC)C(C)C)[C@@H](C)O [Compound 28] (Palmitoyl-TVFRSAREKRRSADIFI-NH2)
1000 to 5000	CCCCCCCCCCCCCCCC(=O)N[C@H](C(=O)N[C@H](C(=O)N[C@@H](Cc1ccccc1)C(=O)N[C@@H](C)C(=O)N[C@@H](CO)C(=O)N[C@@H](CO)C(=O)N[C@@H](CCCNC(=N)N)C(=O)N[C@@H](CCC(=O)O)C(=O)N[C@@H](CCCCN)C(=O)N[C@@H](CCCNC(=N)N)C(=O)N[C@@H](CCCNC(=N)N)C(=O)N[C@@H](CO)C(=O)N[C@@H](C)C(=O)N[C@@H](CC(=O)O)C(=O)N[C@H](C(=O)N[C@@H](Cc1ccccc1)C(=O)N[C@H](C(N)=O)[C@@H](C)CC)[C@@H](C)CC)C(C)C)[C@@H](C)O [Compound 24] (Palmitoyl-TVFASSREKRRSADIFI-NH2)
> 10000	CCCCCCCCCCCCCCCC(=O)N[C@@H](CCCNC(=N)N)C(=O)N1CCC[C@H]1C(=O)N[C@H](C(=O)N[C@@H](C)C(=O)N[C@@H](CC(N)=O)C(=O)N[C@@H](C)C(=O)N[C@@H](CCCNC(=N)N)C(=O)N[C@@H](CC(C)C)C(=O)N[C@@H](CCCNC(=N)N)C(=O)N[C@@H](CC(C)C)C(=O)N[C@@H](CCCNC(=N)N)C(=O)N[C@H](C(=O)N[C@@H](CO)C(=O)NCC(N)=O)C(C)C)C(C)C [Compound 75] (Palmitoyl-RPVANARLRLRVSG-NH2)
1000 to 5000	CCCCCCCCCCCCCCCC(=O)N[C@H](C(=O)N[C@H](C(=O)N[C@@H](Cc1ccccc1)C(=O)N[C@@H](CCCNC(=N)N)C(=O)N[C@@H](CO)C(=O)N[C@@H](CO)C(=O)N[C@@H](CCCNC(=N)N)C(=O)N[C@@H](CCC(=O)O)C(=O)N[C@@H](CCCCN)C(=O)N[C@@H](CCCNC(=N)N)C(=O)N[C@@H](CCCNC(=N)N)C(=O)N[C@@H](CO)C(=O)N[C@@H](C)C(=O)N[C@@H](CC(=O)O)C(=O)N[C@H](C(=O)N[C@@H](Cc1ccccc1)C(=O)N[C@H](C(=O)O)[C@@H](C)CC)[C@@H](C)CC)C(C)C)[C@@H](C)O [Compound 42] (Palmitoyl-TVFRSSREKRRSADIFI-OH)
> 10000	CCCCCCCCCCCCCCCC(=O)N[C@H](C(=O)N[C@@H](CCCNC(=N)N)C(=O)N1CCC[C@H]1C(=O)N[C@H](C(=O)N[C@@H](C)C(=O)N[C@@H](CC(N)=O)C(=O)N[C@@H](C)C(=O)N[C@@H](CCCNC(=N)N)C(=O)N[C@@H](CC(C)C)C(=O)N[C@@H](CCCNC(=N)N)C(=O)N[C@@H](CC(C)C)C(=O)N[C@@H](CCCNC(=N)N)C(N)=O)C(C)C)C(C)C [Compound 83] (Palmitoyl-VRPVANARLRLR-NH2)
> 10000	CCCCCCCCCCCCCCCC(=O)N[C@H](C(=O)N[C@@H](CCCNC(=N)N)C(=O)N1CCC[C@H]1C(=O)N[C@H](C(=O)N[C@@H](C)C(=O)N[C@@H](CC(N)=O)C(=O)N[C@@H](C)C(=O)N[C@@H](CCCNC(=N)N)C(=O)N[C@@H](CC(C)C)C(=O)N[C@@H](CCCNC(=N)N)C(=O)N[C@@H](CC(C)C)C(=O)N[C@@H](CCCNC(=N)N)C(=O)N[C@H](C(N)=O)C(C)C)C(C)C)C(C)C [Compound 85] (Palmitoyl-VRPVANARLRLRV-NH2)
1 to 500	CCCCCCCCCCCOCCCC(=O)N[C@H](C(=O)N[C@H](C(=O)N[C@@H](Cc1ccccc1)C(=O)N[C@@H](CCCNC(=N)N)C(=O)N[C@@H](CO)C(=O)N[C@@H](CO)C(=O)N[C@@H](CCCNC(=N)N)C(=O)N[C@@H](CCC(=O)O)C(=O)N[C@@H](CCCCN)C(=O)N[C@@H](CCCNC(=N)N)C(=O)N[C@@H](CCCNC(=N)N)C(=O)N[C@@H](CO)C(=O)N[C@@H](C)C(=O)N[C@@H](CC(=O)O)C(=O)N[C@H](C(=O)N[C@@H](Cc1ccccc1)C(=O)N[C@H](C(N)=O)[C@@H](C)CC)[C@@H](C)CC)C(C)C)[C@@H](C)O [Compound 60] (X1-TVFRSSREKRRSADIFI-NH2)
> 10000	CCCCCCCCCCCCCCCC(=O)N[C@H](C(=O)N[C@H](C(=O)N[C@@H](CCCNC(=N)N)C(=O)N1CCC[C@H]1C(=O)N[C@H](C(=O)N[C@@H](C)C(=O)N[C@@H](CC(N)=O)C(=O)N[C@@H](C)C(=O)N[C@@H](CCCNC(=N)N)C(=O)N[C@@H](CC(C)C)C(=O)N[C@@H](CCCNC(=N)N)C(=O)N[C@@H](CC(C)C)C(=O)N[C@@H](CCCNC(=N)N)C(=O)N[C@H](C(=O)N[C@@H](CO)C(=O)NCC(N)=O)C(C)C)C(C)C)C(C)C)[C@@H](C)CC [Compound 77] (Palmitoyl-IVRPVANARLRLRVSG-NH2)
501 to 1000	CCCCCCCCCCCCCCCC(=O)N[C@H](C(=O)N[C@H](C(=O)N[C@@H](Cc1ccccc1)C(=O)N[C@@H](CCCNC(=N)N)C(=O)N[C@@H](C)C(=O)N[C@@H](CO)C(=O)N[C@@H](CCCNC(=N)N)C(=O)N[C@@H](CCC(=O)O)C(=O)N[C@@H](CCCCN)C(=O)N[C@@H](CCCNC(=N)N)C(=O)N[C@@H](CCCNC(=N)N)C(=O)N[C@@H](CO)C(=O)N[C@@H](C)C(=O)N[C@@H](CC(=O)O)C(=O)N[C@H](C(=O)N[C@@H](Cc1ccccc1)C(=O)N[C@H](C(N)=O)[C@@H](C)CC)[C@@H](C)CC)C(C)C)[C@@H](C)O [Compound 27] (Palmitoyl-TVFRASREKRRSADIFI-NH2)
1 to 500	CCCCCCCCCCCCCCCC(=O)N[C@H](C(=O)N[C@H](C(=O)N[C@@H](Cc1ccccc1)C(=O)N[C@@H](CCCNC(=N)N)C(=O)N[C@@H](CO)C(=O)N[C@@H](CO)C(=O)N[C@@H](CCCNC(=N)N)C(=O)N[C@@H](CCC(=O)O)C(=O)N[C@@H](CCCCN)C(=O)N[C@@H](CCCNC(=N)N)C(=O)N[C@@H](CCCNC(=N)N)C(=O)N[C@@H](C)C(=O)N[C@@H](C)C(=O)N[C@@H](CC(=O)O)C(=O)N[C@H](C(=O)N[C@@H](Cc1ccccc1)C(=O)N[C@H](C(N)=O)[C@@H](C)CC)[C@@H](C)CC)C(C)C)[C@@H](C)O [Compound 32] (Palmitoyl-TVFRSSREKRRAADIFI-NH2)
501 to 1000	CCCCCCCCCCCCCCCC(=O)N[C@H](C(=O)N[C@H](C(=O)N[C@@H](Cc1ccccc1)C(=O)N[C@@H](CCCNC(=N)N)C(=O)N[C@@H](CO)C(=O)N[C@@H](CO)C(=O)N[C@@H](CCCNC(=N)N)C(=O)N[C@@H](CCC(=O)O)C(=O)N[C@@H](CCCCN)C(=O)N[C@@H](CCCNC(=N)N)C(=O)N[C@@H](CCCNC(=N)N)C(=O)N[C@@H](CO)C(=O)N[C@@H](C)C(=O)N[C@@H](CC(=O)O)C(=O)N[C@H](C(=O)N[C@@H](Cc1ccccc1)C(=O)N[C@@H](C)C(N)=O)[C@@H](C)CC)C(C)C)[C@@H](C)O [Compound 40] (Palmitoyl-TVFRSSREKRRSADIFA-NH2)
> 10000	CCCCCCCCCCCCCCCC(=O)N[C@@H](CO)C(=O)N[C@@H](CO)C(=O)N[C@@H](CCCNC(=N)N)C(=O)N[C@@H](CCC(=O)O)C(=O)N[C@@H](CCCCN)C(=O)N[C@@H](CCCNC(=N)N)C(=O)N[C@@H](CCCNC(=N)N)C(=O)N[C@@H](CO)C(=O)N[C@@H](C)C(=O)N[C@@H](CC(=O)O)C(=O)N[C@H](C(=O)N[C@@H](Cc1ccccc1)C(=O)N[C@H](C(=O)N[C@@H](C)C(N)=O)[C@@H](C)CC)[C@@H](C)CC [Compound 33] (Palmitoyl-SSREKRRSADIFIA-NH2)
> 10000	CCCCCCCCCCCCCCCC(=O)N[C@@H](C)C(=O)N[C@H](C(=O)N[C@H](C(=O)N[C@@H](CCCNC(=N)N)C(=O)N1CCC[C@H]1C(=O)N[C@H](C(=O)N[C@@H](C)C(=O)N[C@@H](CC(N)=O)C(=O)N[C@@H](C)C(=O)N[C@@H](CCCNC(=N)N)C(=O)N[C@@H](CC(C)C)C(=O)N[C@@H](CCCNC(=N)N)C(=O)N[C@@H](CC(C)C)C(=O)N[C@@H](CCCNC(=N)N)C(=O)N[C@H](C(=O)N[C@@H](CO)C(=O)NCC(N)=O)C(C)C)C(C)C)C(C)C)[C@@H](C)CC [Compound 78] (Palmitoyl-AIVRPVANARLRLRVSG-NH2)

Reference: patent US20120028888A1, “APJ RECEPTOR COMPOUNDS” (priority 2008, published 2012)
